Data on one compound can be found in patent US20200323790A1, “METHOD FOR TREATMENT OF ACUTE LUNG INJURY BY USE OF KIRENOL” (CHUNG SHAN MEDICAL UNIVERSITY, priority 2019, published 2020).

Assay [1] concerns BALB/c mice. The assay is described as follows: Lung tissue wet/dry ratio (lung edema) in LPS-induced ALI mice. The note with it: kirenol 3, 10, 30 mg/kg IP, FIG. 2. Type of assay: in vivo. On the procedure:
(§1) BALB/c mice (5-7 weeks old) are obtained from the National Laboratory Animal Center (NLAC) and maintained in the laboratory for a week in order to adapt to the environment. Then experiments are carried out as follows. The mice are divided into three groups. The control group: mice in the group are injected with normal saline by intratracheal injection (IT). The LPS stimulated group: mice in the group are treated with a 50 μL solution containing 100 μg of lipopolysaccharide (LPS) by IT for inducing ALI. The kirenol group: mice are given an intraperitoneal injection (IP) of 3 mg/kg, 10 mg/kg, and 30 mg/kg of kirenol respectively. After 30 minutes, each mouse is treated with 100 μg of LPS by IT. The dexamethasone group: mice are dosed with 1 mg/kg of dexamethasone by IP and then treated with 100 μg of LPS by IT after 30 minutes.
(§2) The mice in the respective group are killed 6 hours after LPS administration. Then use bronchoalveolar lavage (BAL) to get (Bronchoalveolar lavage fluid (BALF). And perform differential blood count, detect neutrophil activity and measure protein content in BALF. The lung tissue of the mice is used in histopathology examination, analysis of pulmonary edema, lipid peroxidation assay, and antioxidant activity analysis.
The mice are killed and lung tissue is obtained. […] Thereby the wet/dry ratio of the lung tissue is calculated by dividing the wet weight by the dry weight.

The subject of the next assay is catalase (CAT). The assay is described as follows: Antioxidant enzyme activity in lung tissue: CAT. The assay is classed as in vivo, mice. The note with it: kirenol 3, 10, 30 mg/kg IP; vs LPS stimulated group; FIG. 7. The procedure:
as §1, §2
(§3) During acute lung injury, the increasing pulmonary oxidative stress easily leads to lung tissue damage. […]

Assay [2] has as its system superoxide dismutase (SOD). Kind of assay: Antioxidant enzyme activity in lung tissue: SOD. The assay is classed as in vivo, mice. The note with it: kirenol 3, 10, 30 mg/kg IP; vs LPS stimulated group; FIG. 6. The procedure:
as §1, §2, §3

The test system of assay [3] is glutathione peroxidase (GSH). The assay is described as follows: Antioxidant enzyme activity in lung tissue: glutathione peroxidase. The assay is classed as in vivo, mice. The settings on record: kirenol 3, 10, 30 mg/kg IP; vs LPS stimulated group; FIG. 8. The procedure:
as §1, §2, §3

Assay [4] relates to BALB/c mice. Kind of assay: Neutrophils in BALF (Giemsa stain) in LPS-induced ALI mice. The assay is classed as in vivo. The settings on record: kirenol 3, 10, 30 mg/kg IP; vs LPS stimulated group; FIG. 4. On the procedure: as §1
(§4) The mice in the respective group are killed 6 hours after LPS administration. […]
(§5) Polymorphonuclear leucocytes and protein in the capillary flow into the alveoli while alveolar capillary barrier being damaged. Thus the integrity of alveolar capillary barrier can be evaluated by analysis of the content of polymorphonuclear leucocytes and protein in the BALF. […]

Assay [5] relates to BALB/c mice. Kind of assay: Histopathology (H&E) of lung in LPS-induced ALI mice. The note with it: LPS 100 μg IT; kirenol 3, 10, 30 mg/kg IP or dexamethasone 1 mg/kg IP 30 min before LPS; 6 h after LPS; FIG. 1. The assay is classed as in vivo. On the procedure: as §1, §2
Kirenol used is obtained from ChemFaces (Catalog No. CFN98867) dissolved in Dimethyl sulfoxide (DMSO). […]

Assay [6] deals with BALB/c mice. Kind of assay: Lipid peroxidation (malondialdehyde, MDA) in lung of LPS-induced ALI mice. Type of assay: in vivo. The settings on record: kirenol 3, 10, 30 mg/kg IP; vs LPS stimulated group; FIG. 5. On the procedure:
as §1, §4
For evaluation of lung tissue damage, the amount of malondialdehyde (MDA), the final product of lipid peroxidation in lung, is measured. […] Lastly absorbance of the mixed solution is measured at 532 nm.

For assay [7], the system named is BALB/c mice. The assay is described as follows: Protein content in BALF (Bradford assay) in LPS-induced ALI mice. The assay is classed as in vivo. The note with it: kirenol 3, 10, 30 mg/kg IP, FIG. 3. On the procedure: as §1, §4, §5

Turning to `C[C@@]1(CO)C[C@@H](O)C[C@@]2(C)[C@@H]3CC[C@](C)([C@@H](O)CO)C=C3CC[C@H]12` [Kirenol], the “lung edema induced by LPS” value in the assay with BALB/c mice [1] was “improves lung edema induced by LPS in a dose dependent fashion”. For the same compound, in the assay on BALB/c mice [1] (vs LPS stimulated group), the “wet/dry ratio of the lung tissue” value is reported as “reduced”. In addition, the “activity of CAT in lung” value in the assay on catalase (CAT) was “increased in a dose dependent manner”. Also, in assay [2], the “activity of SOD in lung” value was “increased in a dose dependent manner”. Moreover, the “activity of GSH (glutathione peroxidase) in lung” value in assay [3] was “increased in a dose dependent manner”. In addition, the “number of neutrophils / neutrophil infiltration in alveolar cavity” value with BALB/c mice [4] was “reduces neutrophil infiltration in alveolar cavity caused by LPS in a dose dependent manner”. In addition, in the assay with BALB/c mice [5], the “hyaline membrane formation in lung” value was “reduces hyaline membrane formation in lung and immune cell infiltration induced by LPS in a dose dependent manner”; the “immune cell infiltration in lung” value was “reduces hyaline membrane formation in lung and immune cell infiltration induced by LPS in a dose dependent manner”. Also, the “lipid peroxidation in lung (MDA)” value with BALB/c mice [6] is “prevents lipid peroxidation caused by LPS in a dose dependent manner”. In the assay with BALB/c mice [7], the “integrity of alveolar capillary barrier” value is “prevents damage to the integrity of alveolar capillary barrier caused by LPS in a dose dependent way”. The “protein content in BALF” value in the assay with BALB/c mice [7] (vs LPS stimulated group) was “lowered”.
